The results in this text go back to publication PMC10726367 (Journal of Medicinal Chemistry, 2023).

Entries after “also recorded” stand apart in the source; their conditions may differ.

For orientation: EC50 means the midpoint of the concentration-response curve.

In this assay the target is T1, SERCA2a (Mus musculus, UniProt O55143).
T1 construct: host or cells: HL-1 cells
In words: Caffeine-induced Ca2+ release assay in HL-1 cells (FLIPR Calcium 6). Format: cell-based. To be noted: for SERCA2a HL-1 effect class: 10 μM (25 μM for 11d), caffeine assay; for effect on caffeine-induced Ca2+ release (in words): 2 h incubation at various concentrations. The text has this: It is known that caffeine stimulates the release of calcium from intracellular stores in cells by acting as a RyR activator.[39],[40] The binding site for caffeine is located on the cytosolic side of the protein between the C-terminal and the S2S3 domain.[41] When caffeine binds to RyR2, it interacts with specific amino acids on the protein, which causes conformational changes in the protein’s structure.[42] This opens the RyR2 channel pore, enabling the mass release of calcium ions from the SR. We investigated the effect of caffeine-induced Ca^2+ release in HL-1 cells treated with cytosolic Ca^2+ indicator FLIPR Calcium 6 (Molecular Devices). The HL-1 cell line is an immortalized mouse cardiomyocyte cell line commonly used to study the effects of various substances on cell function.[43] If the tested compound modulates SERCA2a activation, it will cause an increase in Ca^2+ concentration in the SR and the effect of a fixed dose of caffeine on SR Ca^2+ release will be potentiated by increasing doses of a proposed SERCA activator.[26] As a positive control, we used CDN1163, a small-molecule SERCA activator, which is at present in a clinical trial due to its potential therapeutic use for certain cardiac conditions.[27]
HL-1 cells (50,000 per well) were cultivated for 24 h in black-walled, clear-bottom 96-well microplates (Corning, Amsterdam, The Netherlands) covered with fibronectin/gelatin (Merck KGaA, Darmstadt, Germany) in a humidified incubator at 37 °C and 5% CO2.
Changes in Ca^2+ concentration were measured on a multiwell plate reader TECAN Spark 20 M using a FLIPR 6 Calcium Assay Kit from Molecular Devices (Molecular Devices LLC, München, Germany) at 37 °C. The 1000 × stock solutions of the test compounds were prepared in DMSO. A 100 μL solution of test compound in Tyrode’s solution containing FLIPR Calcium 6 dye was incubated for 2 h at 37 °C and 5% CO2 in a humidified incubator. The time courses were recorded in each well. Fluorescence was evoked at 485 nm excitation wavelength and read out in a bottom-read mode at 525 nm. Data were recorded every 2 s, exposure −20 flashes, excitation bandwidth −10 nm, emission bandwidth −15 nm. To initiate Ca^2+ influx, 25 μL of 50 mM caffeine solution in Tyrode’s solution containing 2 mM CaCl2 was injected in each well (speed 100 μL/s) at the 10 s time point, resulting in 10 mM final concentration in the well. The differences between the caffeine-induced peak minus basal fluorescence, ΔFCaff, were taken into account for the analysis. The Tyrode’s solution +0.1 v/v% DMSO was used as a control. The dose–response curves were calculated using the software package GraphPad Prism version 8.3.1. All data are presented as mean ± SD from eight independent experiments. Y = bottom + (top – bottom)/(1 + 10^((LogEC50 – X) × HillSlope)) was used, where HillSlope describes the steepness of the curve and top and bottom are plateaus in the units of the Y axis.

T1 sequence (O55143 1-998 isoform O55143-2): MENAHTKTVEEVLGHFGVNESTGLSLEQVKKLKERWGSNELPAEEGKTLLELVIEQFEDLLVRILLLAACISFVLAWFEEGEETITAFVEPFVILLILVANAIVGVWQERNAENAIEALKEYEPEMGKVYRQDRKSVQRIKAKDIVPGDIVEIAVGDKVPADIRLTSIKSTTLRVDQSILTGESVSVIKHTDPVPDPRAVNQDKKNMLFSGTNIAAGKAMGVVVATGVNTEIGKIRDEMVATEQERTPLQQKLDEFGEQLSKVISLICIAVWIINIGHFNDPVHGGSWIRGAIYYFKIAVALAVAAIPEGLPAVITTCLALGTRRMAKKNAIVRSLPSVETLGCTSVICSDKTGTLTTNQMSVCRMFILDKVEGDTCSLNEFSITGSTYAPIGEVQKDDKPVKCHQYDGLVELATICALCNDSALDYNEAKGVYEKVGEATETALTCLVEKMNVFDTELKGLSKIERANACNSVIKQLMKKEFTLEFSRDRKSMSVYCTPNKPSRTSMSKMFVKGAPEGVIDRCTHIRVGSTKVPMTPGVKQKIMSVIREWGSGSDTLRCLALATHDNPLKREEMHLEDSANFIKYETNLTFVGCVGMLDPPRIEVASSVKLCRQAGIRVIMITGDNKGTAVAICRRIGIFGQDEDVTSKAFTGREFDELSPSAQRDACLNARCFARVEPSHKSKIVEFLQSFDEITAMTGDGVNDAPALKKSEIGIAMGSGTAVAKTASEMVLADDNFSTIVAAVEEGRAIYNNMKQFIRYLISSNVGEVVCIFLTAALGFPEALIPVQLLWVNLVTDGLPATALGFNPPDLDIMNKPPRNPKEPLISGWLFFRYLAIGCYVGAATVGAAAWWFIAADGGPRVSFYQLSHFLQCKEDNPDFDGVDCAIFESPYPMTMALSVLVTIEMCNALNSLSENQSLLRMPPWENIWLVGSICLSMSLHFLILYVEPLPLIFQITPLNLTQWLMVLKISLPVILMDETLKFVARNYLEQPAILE

Turning to `COc1ccc(SCCCN(CCCCC2(O)CC2)CCCCC2(O)CC2)cc1` [12c, 1,1′-(((3-((4-Methoxyphenyl)thio)propyl)azanediyl)bis(butane-4,1-diyl))bis(cyclopropan-1-ol)], the “SERCA2a HL-1 effect class” value is “+++ and ++”. Also, the “effect on caffeine-induced Ca2+ release (in words)” value (“effect … (in words)” below) (HL-1 cells, 10 mM caffeine) was “most efficacious; also recorded: stronger activating effect on caffeine-induced Ca^2+ release at concentrations above 10 μM”.

For the compound `COc1ccc(OCCCNCCCCC2(O)CC2)cc1` [11b, 1-(4-((3-(4-Methoxyphenoxy)propyl)amino)butyl)cyclopropan-1-ol], the “SERCA2a HL-1 effect class” value is reported as “++”.

In the case of `COc1ccc(SCCCNCCCCC2(O)CC2)cc1` [11c, 1-(4-((3-((4-Methoxyphenyl)thio)propyl)amino)butyl)cyclopropan-1-ol], the “SERCA2a HL-1 effect class” value is given as “++”.

In the case of `COc1ccc2c(c1)CN(Cc1ccc(C(=O)O)cc1)CCS2` [ARM210, reference compound], the “SERCA2a HL-1 effect class” value is “+”. Moreover, where the note is “HL-1 cells, 10 mM caffeine”, the “effect … (in words)” value is recorded as “clear concentration-dependent effect”.

On to `COc1ccc2c(c1)CN(CCCCNCCCCC1(O)CC1)CCS2` [11a, 1-(4-((4-(7-Methoxy-2,3-dihydrobenzo[1,4-f]thiazepin-4(5H)-yl)butyl)amino)butyl)cyclopropan-1-ol], for which the “SERCA2a HL-1 effect class” value was “+”. Further, for the setting “HL-1 cells, 10 mM caffeine”, the “effect … (in words)” value is “most potent”.

As for `COc1ccc2c(c1)CN(CCCCC1(O)CC1)CCS2` [11d, 1-(4-(7-Methoxy-2,3-dihydrobenzo[1,4-f]thiazepin-4(5H)-yl)butyl)cyclopropan-1-ol], the “SERCA2a HL-1 effect class” value is “+”. Also, the “effect … (in words)” value (HL-1 cells, 10 mM caffeine) is listed as “least efficacious; also recorded: no saturation effect at concentrations up to 50 μM; also recorded: slight”.

Consider `COc1ccc2c(c1)CN(CCCCN(CCCCC1(O)CC1)CCCCC1(O)CC1)CCS2` [12a, 1,1′-(((4-(7-Methoxy-2,3-dihydrobenzo[1,4-f]thiazepin-4(5H)-yl)butyl)azanediyl)bis(butane-4,1-diyl))bis(cyclopropan-1-ol)], for which the “SERCA2a HL-1 effect class” value is “++”. In addition, the EC50 (HL-1 cells, 10 mM caffeine, value, interval) worked out at 9.2 µM.
